Key:
Type in all cases: in vivo, human
[1] = system: relapsing-remitting multiple sclerosis patient; experiment: Safety (TEAE, laboratory data), 48-week double-blind treatment period (Example 2); settings: 48 weeks
Method: (§1) A placebo-controlled, double-blinded, randomized, 3-parallel group stratified study was conducted in relapsing-remitting multiple sclerosis patient who were concurrently on a stable dose of interferon beta. The dose level of interferon beta was defined as follows: • Low dose: AVONEX® (interferon beta-1a) 30 mcg once a week intramuscularly, or REBIF® (interferon beta-1a) 22 mcg three times per week subcutaneously. • High dose: REBIF® 44 mcg three times per week subcutaneously, or BETASERON® (interferon beta-1b) 0.25 mg every other day subcutaneously.
(§2) Design/Methods: 86 of the 116 patients that were randomized to treatment (placebo: 41; 7 mg: 37; 14 mg: 38) for the first 6-months in Example 1 completed this 6-month period and accepted to continue medication for an additional 6-month period (placebo: 31, 7 mg: 28, 14 mg: 27). Safety was evaluated from TEAE, physical exam (every 6 weeks), laboratory data (every 6 weeks), ECG (at the close-out visit), pancreatic ultrasound (at the close-out visit) and brain MRI (at the close-out visit). Relapses were recorded and EDSS was performed every 6-weeks. Annualized relapse rates (ARR) were estimated by a Poisson model adjusted to IFN strata and to geographical regions. The following results report the entire 48-week double-blind treatment period.

[2] = system: relapsing-remitting multiple sclerosis patient; experiment: MS relapse, 24-week add-on study (Example 1); settings: 24 weeks, ITT
Method: as §1
(§3) Around 40 patients were treated in each treatment group (placebo: 41, 7 mg: 37, and 14 mg: 38). A third of patients in each group were treated with low dose interferon beta 1a. […] The mean age of the study population was 40.1 years. […] The base line Expanded Disability Status Scale (EDSS) score was similar between treatment groups (around 2.5).
(§4) Safety was evaluated from Treatment Emergent Adverse Event (TEAE), physical examination and laboratory data (e.g. Liver Function Test, every 2-8 weeks), ECG and abdominal ultrasound (24-weeks). Brain MRI (magnetic resonance image) activity, including T1-gadolinium (T1-Gd) with central reading were recorded every 8-week. Relapses were recorded and EDSS was performed at 24-week.

[3] = system: relapsing-remitting multiple sclerosis patient; experiment: Safety (TEAE, laboratory data), 24-week add-on study (Example 1); settings: 24 weeks
Method: as §1, §3, §4

[4] = system: relapsing-remitting multiple sclerosis patient; experiment: Brain MRI Gd-enhancing T1-lesions, 48-week double-blind treatment period (Example 2); settings: for Patients with >=1 Gd-enhancing T1-lesions post-baseline, No (% of patients; free of T1-Gd lesions): 48 weeks, ITT; for Relative risk reduction in the number of T1-Gd lesions compared with placebo added to IFN-beta / Relative reduction of T1-Gd lesion volume compared to placebo: 48 week; for Relative risk reduction in the number of T1-Gd lesions compared with placebo added to IFN-beta: adjusted
Method: as §1, §2

[5] = system: relapsing-remitting multiple sclerosis patient; experiment: Brain MRI Gd-enhancing T1-lesions, 24-week add-on study (Example 1); settings: for Patients with >=1 Gd-enhancing T1-lesions post-baseline, No (% of patients; free of T1-Gd lesions): 24 weeks, ITT; for Relative risk reduction in the number of T1-Gd lesions compared with placebo added to IFN-beta / Relative reduction of T1-Gd lesion volume compared to placebo: 24 week; for Relative risk reduction in the number of T1-Gd lesions compared with placebo added to IFN-beta: adjusted
Method: as §1, §3, §4

[6] = system: relapsing-remitting multiple sclerosis patient; experiment: MS relapse, 48-week double-blind treatment period (Example 2)
Method: as §1, §2

[7] = 7 mg teriflunomide added to stable-dose IFN-beta
[8] = 14 mg teriflunomide added to stable-dose IFN-beta
[9] = 7 mg teriflunomide added to stable-dose interferon beta
[10] = 14 mg teriflunomide added to stable-dose interferon beta
[11] = 14 mg teriflunomide in addition to stable-dose IFN-beta, p<0.0001

C/C(O)=C(\C#N)C(=O)Nc1ccc(C(F)(F)F)cc1 [teriflunomide, (Z)-2-cyano-3-hydroxy-but-2-enoic acid-(4′-trifluoromethylphenyl)-amide]
Patients with ALT increased above 3ULN without concomitant increase in bilirubin (number) [1, 7]: 1 | TEAE all gastrointestinal disorders [1, 7]: 18.9% | TEAE all type of headaches [1, 7]: 5.4% | TEAE upper respiratory tract infections as a whole [1, 7]: 16.2% | TEAEs that led to treatment discontinuation (number) [1, 7]: 3 | White blood cell counts decreases (number) [1, 7]: 3 | Patients with ALT increased above 3ULN without concomitant increase in bilirubin (number) [1, 8]: 3 | TEAE all gastrointestinal disorders [1, 8]: 31.6% | TEAE all type of headaches [1, 8]: 18.4% | TEAE upper respiratory tract infections as a whole [1, 8]: 23.7% | TEAEs that led to treatment discontinuation (number) [1, 8]: 3 | White blood cell counts decreases (number) [1, 8]: 4 | Total number of relapses ([2]; 7 mg teri + IFN-β, 16.4 patient-years followed): 5 | Total number of relapses ([2]; 14 mg teri + IFN-β, 17.3 patient-years followed): 2 | Proportion of patients with ALT/SGPT greater than 3xULN [3, 9]: 0% | Proportion of patients with TEAE due to increased ALT/SGPT [3, 9]: 13.5% | Proportion of patients with TEAE potentially related to immunosuppression (white blood cell counts, infections and infestations) [3, 9]: 49% | Upper respiratory tract infections (nasopharyngitis, sinusitis), proportion of patients [3, 9]: 10.8% | Proportion of patients with ALT/SGPT greater than 3xULN [3, 10]: 5.3% | Proportion of patients with TEAE due to increased ALT/SGPT [3, 10]: 28.9% | Proportion of patients with TEAE potentially related to immunosuppression (white blood cell counts, infections and infestations) [3, 10]: 50% | Upper respiratory tract infections (nasopharyngitis, sinusitis), proportion of patients [3, 10]: 23.7% | Concomitant bilirubin increase (with ALT/SGPT increase) ([3]; all groups, 7 mg or 14 mg teriflunomide added to stable-dose interferon beta): no case | Patients with >=1 Gd-enhancing T1-lesions post-baseline, No (% of patients; free of T1-Gd lesions) ([4]; 7 mg teri + IFN-β): 69.4% | Relative risk reduction in the number of T1-Gd lesions compared with placebo added to IFN-beta ([4]; 7 mg teriflunomide in addition to stable-dose IFN-beta, p=0.0005): 84.6% | Relative reduction of T1-Gd lesion volume compared to placebo ([4]; 7 mg teriflunomide in addition to stable-dose IFN-beta, p=0.1104): 72.1% | Patients with >=1 Gd-enhancing T1-lesions post-baseline, No (% of patients; free of T1-Gd lesions) ([4]; 14 mg teri + IFN-β): 76.3% | Relative risk reduction in the number of T1-Gd lesions compared with placebo added to IFN-beta [4, 11]: 82.8% | Relative reduction of T1-Gd lesion volume compared to placebo ([4]; 14 mg teriflunomide in addition to stable-dose IFN-beta, p=0.0154): 70.6% | Patients with >=1 Gd-enhancing T1-lesions post-baseline, No (% of patients; free of T1-Gd lesions) ([5]; 7 mg teri + IFN-β): 69.4% | Relative risk reduction in the number of T1-Gd lesions compared with placebo added to IFN-beta ([5]; 7 mg teriflunomide in addition to stable-dose IFN-beta, p=0.0009): 82.6% | Relative reduction of T1-Gd lesion volume compared to placebo ([5]; 7 mg teriflunomide in addition to stable-dose IFN-beta, p=0.1931): 67.6% | Patients with >=1 Gd-enhancing T1-lesions post-baseline, No (% of patients; free of T1-Gd lesions) ([5]; 14 mg teri + IFN-β): 81.6% | Relative risk reduction in the number of T1-Gd lesions compared with placebo added to IFN-beta [5, 11]: 84.4% | Relative reduction of T1-Gd lesion volume compared to placebo ([5]; 14 mg teriflunomide in addition to stable-dose IFN-beta, p=0.0072): 64.7% | Reduction in annualized relapse rate compared to IFN-beta ([6]; 7 mg teriflunomide in addition to stable-dose IFN-beta, p=0.43): 32.6% | Reduction in annualized relapse rate compared to IFN-beta ([6]; 14 mg teriflunomide in addition to stable-dose IFN-beta, p=0.11): 57.9%
